From patent US9376442B2, “Methylpyrrolopyrimidinecarboxamides” (Takeda GmbH, priority 2009, dated 2016)

Experiments:
PDE5A1 = target: T1, PDE5A1 (Homo sapiens, UniProt O76074); assay: Inhibition of type 5 phosphodiesterase (PDE5) activity, modified SPA test with human platelet lysate; type: biochemical; details: 0.5 μM cGMP, read-out: PDE5A1 inhibitory values [measured as −log IC50 (mol/l)] (converted)
T1 construct: from tissue; host or cells: human platelets from fresh donor blood (10,000 x g supernatant of sonicated lysate)
In short: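 Enzyme source is lysate from human platelets (10,000 g supernatant). Compound preincubated 5 min at 37° C in Tris pH 7.4 containing 1 μM motapizone and 10 nM of a PDE2 inhibitor. Reaction started with 0.5 μM cGMP ([3H] tracer) and run 15 min; SPA read-out, IC50 by non-linear regression.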

PDE4B1 = target: T2, PDE4B1 (Homo sapiens, UniProt Q07343); assay: Inhibition of type 4 phosphodiesterase (PDE4) activity, modified SPA test with recombinant PDE4B1 expressed in SF21 insect cells; type: biochemical; details: recombinant PDE4B1, 0.5 μM cAMP, read-out: PDE4B1 inhibitory values [measured as −log IC50 (mol/l)] (converted)
T2 construct: made in house; host or cells: SF21 insect cells (baculovirus; pCRBac vector), 1000 x g supernatant of homogenate
In short: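 Modified [3H]cAMP SPA using 1000×g supernatant of SF21 cells expressing recombinant human PDE4B1, in 20 mM Tris pH 7.4, 0.1 mg/ml BSA, 5 mM Mg2+, 0.5 μM cAMP. After 5 min preincubation at 37 °C, 15 min reaction, stopped with SPA beads plus IBMX; IC50 by non-linear regression.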

T2 sequence (Q07343 whole entry): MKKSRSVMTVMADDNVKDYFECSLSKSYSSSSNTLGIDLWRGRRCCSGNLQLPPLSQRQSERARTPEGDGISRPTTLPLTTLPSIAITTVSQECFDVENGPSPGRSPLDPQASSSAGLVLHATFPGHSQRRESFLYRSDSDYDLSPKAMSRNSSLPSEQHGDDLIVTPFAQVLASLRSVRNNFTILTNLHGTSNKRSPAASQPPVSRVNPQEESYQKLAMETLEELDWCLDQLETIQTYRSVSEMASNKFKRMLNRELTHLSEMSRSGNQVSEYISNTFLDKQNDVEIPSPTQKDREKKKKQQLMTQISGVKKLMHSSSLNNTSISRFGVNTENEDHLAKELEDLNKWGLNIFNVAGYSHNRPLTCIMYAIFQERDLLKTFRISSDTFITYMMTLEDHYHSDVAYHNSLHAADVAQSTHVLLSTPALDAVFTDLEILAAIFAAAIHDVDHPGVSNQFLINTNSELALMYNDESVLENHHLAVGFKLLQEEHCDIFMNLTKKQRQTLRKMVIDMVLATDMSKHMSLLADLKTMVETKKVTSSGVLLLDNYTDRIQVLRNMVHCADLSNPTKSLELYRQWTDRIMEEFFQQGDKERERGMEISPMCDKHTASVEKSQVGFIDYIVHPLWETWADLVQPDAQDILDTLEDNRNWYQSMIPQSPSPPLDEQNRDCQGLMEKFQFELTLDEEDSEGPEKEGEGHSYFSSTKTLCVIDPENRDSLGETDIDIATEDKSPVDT

| SMILES | IC50 (PDE5A1) [nM] | IC50 (PDE4B1) [nM] |
| --- | --- | --- |
| CC(=O)N1CCC(NC(=O)c2c(C)[nH]c3c(-c4cc(C(C)C)ccc4OCC4CC4)ncnc23)CC1 [Example E157, N-(1-Acetylpiperidin-4-yl)-4-[2-(cyclopropylmethoxy)-5-(propan-2-yl)phenyl]-6-methyl-5H-pyrrolo[3,2-d]pyrimidine-7-carboxamide] | < 1 | 100 to 1000 |
| COc1ccc(OCC2CC2)c(-c2ncnc3c(C(=O)NC4CCC(NC(=O)C(C)O)CC4)c(C)[nH]c23)c1 (stereo not drawn) [Example F44, 4-[2-(Cyclopropylmethoxy)-5-methoxyphenyl]-N-(trans-4-{[(25)-2-hydroxypropanoyl]amino}cyclohexyl)-6-methyl-5H-pyrrolo[3,2-d]pyrimidine-7-carboxamide] | < 1 | 100 to 1000 |
| Cc1ccc(OCC2CC2)c(-c2ncnc3c(C(=O)N[C@H]4CC[C@@H](NC(=O)[C@H](C)O)CC4)c(C)[nH]c23)c1 [Example F56, 4-[2-(Cyclopropylmethoxy)-5-methylphenyl]-N-(cis-4-{[(2S)-2-hydroxypropanoyl]amino}cyclohexyl)-6-methyl-5H-pyrrolo[3,2-d]pyrimidine-7-carboxamide] | < 1 | < 100 |
| CCc1ccc(OCC2CC2)c(-c2ncnc3c(C(=O)N[C@H]4CC[C@H](NC(=O)CO)CC4)c(C)[nH]c23)c1 [Example F93, 4-[2-(Cyclopropylmethoxy)-5-ethylphenyl]-N-{trans-4-[(hydroxyacetyl)amino]cyclohexyl}-6-methyl-5H-pyrrolo[3,2-d]pyrimidine-7-carboxamide] | < 1 | < 100 |
| Cc1ccc(OCC2CC2)c(-c2ncnc3c(C(=O)NC4CCN(C(=O)[C@H](C)O)CC4)c(C)[nH]c23)c1 [Example F52, 4-[2-(Cyclopropylmethoxy)-5-methylphenyl]-N-{1-[(2S)-2-hydroxypropanoyl]piperidin-4-yl}-6-methyl-5H-pyrrolo[3,2-d]pyrimidine-7-carboxamide] | < 1 | < 100 |
| COCC(=O)N[C@@H]1CC[C@@H](NC(=O)c2c(C)[nH]c3c(-c4cc(C(F)F)ccc4OCC4CC4)ncnc23)[C@H](F)C1 (relative stereo) [Example P161, 4-[2-(Cyclopropylmethoxy)-5-(difluoromethyl)phenyl]-N-{(1R*,2R*,4R*)-2-fluoro-4-[(methoxyacetyl)amino]cyclohexyl}-6-methyl-5H-pyrrolo[3,2-d]pyrimidine-7-carboxamide] | < 1 | < 100 |
| CC(=O)N[C@H]1CC[C@@H](NC(=O)c2c(C)[nH]c3c(-c4cc(C)ccc4OCC4CC4)ncnc23)CC1 [Example E87, N-[cis-4-(acetylamino)cyclohexyl]-4-[2-(cyclopropylmethoxy)-5-methylphenyl]-6-methyl-5H-pyrrolo[3,2-d]pyrimidine-7-carboxamide] | < 1 | < 100 |
| COc1ccc(OCC2CC2)c(-c2ncnc3c(C(=O)N[C@H]4CC[C@H](NC(=O)CO)CC4)c(C)[nH]c23)c1 [Example F43, 4-[2-(Cyclopropylmethoxy)-5-methoxyphenyl]-N-[trans-4-(glycoloylamino)cyclohexyl]-6-methyl-5H-pyrrolo[3,2-d]pyrimidine-7-carboxamide] | < 1 | 100 to 1000 |
| COCC(=O)N[C@H]1CC[C@H](NC(=O)c2c(C)[nH]c3c(-c4cc(C(F)F)ccc4OCC4CC4)ncnc23)C[C@@H]1C (relative stereo) [Example P191, 4-[2-(Cyclopropylmethoxy)-5-(difluoromethyl)phenyl]-N-{(1S*,3S*,4S*)-4-[(methoxyacetyl)amino]-3-methylcyclohexyl}-6-methyl-5H-pyrrolo[3,2-d]pyrimidine-7-carboxamide] | < 1 | < 100 |
| CCc1ccc(OCC2CC2)c(-c2ncnc3c(C(=O)NC4CCN(C(C)=O)CC4)c(C)[nH]c23)c1 [Example E145, N-(1-Acetylpiperidin-4-yl)-4-[2-(cyclopropylmethoxy)-5-ethylphenyl]-6-methyl-5H-pyrrolo[3,2-d]pyrimidine-7-carboxamide] | < 1 | 100 to 1000 |
| CC(=O)N[C@H]1CC[C@H](NC(=O)c2c(C)[nH]c3c(-c4cc(C(F)F)ccc4OCC4CC4)ncnc23)[C@H](F)C1 (relative stereo) [Example P169, N-[(1S*,2R*,4S*)-4-(Acetylamino)-2-fluorocyclohexyl]-4-[2-(cyclopropylmethoxy)-5-(difluoromethyl)phenyl]-6-methyl-5H-pyrrolo[3,2-d]pyrimidine-7-carboxamide] | < 1 | < 100 |
| Cc1ccc(OCC2CC2)c(-c2ncnc3c(C(=O)N[C@@H]4CCC[C@H]4O)c(C)[nH]c23)c1 [Example E178, 4-[2-(Cyclopropylmethoxy)-5-methylphenyl]-N-[(1R,2R)-2-hydroxycyclopentyl]-6-methyl-5H-pyrrolo[3,2-d]pyrimidine-7-carboxamide] | < 1 | 100 to 1000 |
| CC(=O)N1CCC(NC(=O)c2c(C)[nH]c3c(-c4cc(C(F)F)ccc4OCC4CC4)ncnc23)CC1 [Example P1, N-(1-Acetylpiperidin-4-yl)-4-[2-(cyclopropylmethoxy)-5-(difluoromethyl)phenyl]-6-methyl-5H-pyrrolo[3,2-d]pyrimidine-7-carboxamide] | < 1 | < 100 |
| COCC(=O)N[C@H]1CC[C@H](NC(=O)c2c(C)[nH]c3c(-c4cc(OC)ccc4OCC4CC4)ncnc23)CC1 [Example E71, 4-[2-(Cyclopropylmethoxy)-5-methoxyphenyl]-N-{trans-4-[(methoxyacetyl)amino]cyclohexyl}-6-methyl-5H-pyrrolo[3,2-d]pyrimidine-7-carboxamide] | < 1 | 100 to 1000 |
| Cc1[nH]c2c(-c3cc(C(F)(F)F)ccc3OCC3CC3)ncnc2c1C(=O)NC1CCN(C(=O)CO)CC1 [Example F57, 4-[2-(Cyclopropylmethoxy)-5-(trifluoromethyl)phenyl]-N-[1-(hydroxyacetyl)piperidin-4-yl]-6-methyl-5H-pyrrolo[3,2-d]pyrimidine-7-carboxamide] | < 1 | < 100 |
| CC(=O)N[C@H]1CC[C@@H](NC(=O)c2c(C)[nH]c3c(-c4cc(C(F)(F)F)ccc4OCC4CC4)ncnc23)CC1 [Example E96, N-[cis-4-(acetylamino)cyclohexyl]-4-[2-(cyclopropylmethoxy)-5-(trifluoromethyl)phenyl]-6-methyl-5H-pyrrolo[3,2-d]pyrimidine-7-carboxamide] | < 1 | 100 to 1000 |
| CCOC(=O)N[C@H]1CC[C@H](NC(=O)c2c(C)[nH]c3c(-c4cc(F)ccc4OCC4CC4)ncnc23)CC1 [Example E44, Ethyl {trans-4-[({4-[2-(cyclopropylmethoxy)-5-fluorophenyl]-6-methyl-5H-pyrrolo[3,2-d]pyrimidin-7-yl}carbonyl)amino]cyclohexyl}carbamate] | < 1 | < 100 |
| COCC(=O)N1CCC(NC(=O)c2c(C)[nH]c3c(-c4cc(C)ccc4OCC4CC4)nc(C)nc23)CC1 [Example E171, 4-[2-(Cyclopropylmethoxy)-5-methylphenyl]-N-[1-(methoxyacetyl)piperidin-4-yl]-2,6-dimethyl-5H-pyrrolo[3,2-d]pyrimidine-7-carboxamide] | < 1 | 100 to 1000 |
| CCC(=O)N[C@H]1CC[C@H](NC(=O)c2c(C)[nH]c3c(-c4cc(F)ccc4OCC4CC4)ncnc23)CC1 [Example E42, 4-[2-(Cyclopropylmethoxy)-5-fluorophenyl]-6-methyl-N-[trans-4-(propionylamino)cyclohexyl]-5H-pyrrolo[3,2-d]pyrimidine-7-carboxamide] | < 1 | < 100 |
| CCc1ccc(OCC2CC2)c(-c2ncnc3c(C(=O)N[C@H]4CC[C@H](NC(=O)[C@H](C)O)CC4)c(C)[nH]c23)c1 [Example F94, 4-[2-(Cyclopropylmethoxy)-5-ethylphenyl]-N-(trans-4-{[(2S)-2-hydroxypropanoyl]amino}cyclohexyl)-6-methyl-5H-pyrrolo[3,2-d]pyrimidine-7-carboxamide] | < 1 | < 100 |
| CCC(=O)N[C@H]1CC[C@H](NC(=O)c2c(C)[nH]c3c(-c4cc(C(F)(F)F)ccc4OCC4CC4)ncnc23)CC1 [Example E94, 4-[2-(cyclopropylmethoxy)-5-(trifluoromethyl)phenyl]-6-methyl-N-[trans-4-(propanoylamino)cyclohexyl]-5H-pyrrolo[3,2-d]pyrimidine-7-carboxamide] | < 1 | < 100 |
| COCC(=O)N[C@H]1CC[C@H](NC(=O)c2c(C)[nH]c3c(-c4cc(C(F)F)ccc4OCC4CC4)ncnc23)C[C@H]1F (relative stereo) [Example P201, 4-[2-(Cyclopropylmethoxy)-5-(difluoromethyl)phenyl]-N-{(1S*,3R*,4S*)-3-fluoro-4-[(methoxyacetyl)amino]cyclohexyl}-6-methyl-5H-pyrrolo[3,2-d]pyrimidine-7-carboxamide] | < 1 | < 100 |
| COCC(=O)N[C@H]1CC[C@H](NC(=O)c2c(C)[nH]c3c(-c4cc(C(F)F)ccc4OCC4CC4)ncnc23)C[C@@H]1F (relative stereo) [Example P211, 4-[2-(Cyclopropylmethoxy)-5-(difluoromethyl)phenyl]-N-{(1S*,3S*,4S*)-3-fluoro-4-[(methoxyacetyl)amino]cyclohexyl}-6-methyl-5H-pyrrolo[3,2-d]pyrimidine-7-carboxamide] | < 1 | < 100 |
